These results are taken from patent publication US6673839B1, “Pharmaceutical compositions with antitumour activity” (Universita' Degli Studi di Catania, priority 1998, dated 2004).

Holding throughout (type): cell-based, human
The subject of assay [1] is Cells from Nasopharynx Carcinoma Explant. In words: In vitro short-term chemosensitivity assay (MTT). Conditions: Table 1, 24 h. As for the experimental part:
(§1) The effects of L-aC on cells from 4 primitive epidermoid carcinomas of the larynx and 1 primitive undifferentiated carcinoma of the nasopharynx were tested.
(§2) Tissue fragments from the tumour mass were mechanically dissociated in Hank's solutions adding an antibiotic and an antifungal to obtain a cell monosuspension free of agglomerates. The resulting suspension was centrifuged at 1200 rpm for 5 minutes and the pellet was resuspended in MEM culture medium supplemented with 10% of patient serum, to obtain a concentration of 10^5 cells/ml. Subsequently, 180 μl of the resulting suspension were dispensed in microplate wells and incubated under 5% CO2 atmosphere at 37° C. for 3 days. After that, the antitumor medicaments were added in the amount of 20 μl for each well, at a concentration of 0.1×, 1× and 10× the maximum serum concentrations that can usually be reached in clinical practice. 24 h after the beginning of the exposure to the antitumour medicament, 100 μl of MTT were added, and after 4 h, a further 150 μl of dimethylsulfoxide were added.
(§3) The optical density was evaluated by a Uniscan microspectrophotometer with a […] wavelength filter. Cytotoxicity was evaluated as percentage of the optical density of the treated sample compared with the optical density of the control.
(§4) Bleomycin (BLEC), […] (CDDP), 5-fluoruracil (5-FU), vincristine (VCR), epidoxorubicin (Epi-Dx) and methotrexate (MTX) were tested for comparison purposes.
(§5) L-aC was tested at the following concentrations: 0.2-2-20 mg/ml.
(§6) In vitro short-term chemosensitivity assay (according to Hill and coll.)
(§7) (Cell Vitality Percentage After Exposure to the Antitumoral)—Raw Data
(Cells from Nasopharynx Carcinoma Explant)

Assay [2] deals with Cells from Larynx Carcinoma Explant. Put plainly: In vitro short-term chemosensitivity assay (MTT). As to the method: as §1, §2, §3, §4, §5, §6, §7
(Cells from Larynx Carcinoma Explant)

Assay [3] concerns cells from 4 primitive epidermoid carcinomas of the larynx and 1 primitive undifferentiated carcinoma of the nasopharynx. In words: In vitro short-term chemosensitivity assay (MTT), all five explants. Conditions: five explants. As for the experimental part:
as §1, §2, §3, §4, §5

Setting [4] is: 0.1x maximum clinical serum concentration (L-aC tested at 0.2-2-20 mg/ml).
Where [5] appears, read: 1x maximum clinical serum concentration.
Where [6] appears, read: 10x maximum clinical serum concentration.

`O=c1[nH]cc(F)c(=O)[nH]1` [5-FU, 5-fluoruracil]: the “Cell Vitality Percentage After Exposure” value in assay [1] (setting [4]) is given as 43%; in assay [1] (setting [5]) it was 12%; in assay [1] (setting [6]), 5.7%; in assay [2] (Table 2 explant, 0.1x) it was 53%; in assay [2] (Table 2 explant, 1x) it was 38%; in assay [2] (Table 2 explant, 10x), 13%. In addition, the “Cell Vitality Percentage After Exposure” value in assay [2] (Table 3 explant, 0.1x) came to 52%; in assay [2] (Table 3 explant, 1x), 45%; in assay [2] (Table 3 explant, 10x), 23%; in assay [2] (Table 4 explant, 0.1x), 40%; in assay [2] (Table 4 explant, 1x), 14%; in assay [2] (Table 4 explant, 10x) it was 14%. In addition, the “Cell Vitality Percentage After Exposure” value was 55% in assay [2] (Table 5 explant, 0.1x); 13% in assay [2] (Table 5 explant, 1x); 8.2% in assay [2] (Table 5 explant, 10x). For the same compound, the “most active medicaments (cases out of 5)” value in assay [3] is on record as 1/5.

In the case of `N.N.O=C([O-])C1(C(=O)[O-])CCC1.[Pt+2]` [CBP, carboplatin], the “Cell Vitality Percentage After Exposure” value came out at 7.1% in assay [1] (setting [4]); 7% in assay [1] (setting [5]); 6.5% in assay [1] (setting [6]); 78% in assay [2] (Table 2 explant, 0.1x); 58% in assay [2] (Table 2 explant, 1x); 34% in assay [2] (Table 2 explant, 10x). For the same compound, the “Cell Vitality Percentage After Exposure” value in assay [2] (Table 3 explant, 0.1x) turned out to be 88%; in assay [2] (Table 3 explant, 1x), 50%; in assay [2] (Table 3 explant, 10x), 21%; in assay [2] (Table 5 explant, 0.1x) it was 72%; in assay [2] (Table 5 explant, 1x) it was 53%; in assay [2] (Table 5 explant, 10x) it was 45%.

For `COc1cccc2c1C(=O)c1c(O)c3c(c(O)c1C2=O)C[C@@](O)(C(=O)CO)C[C@@H]3O[C@H]1C[C@H](N)[C@@H](O)[C@H](C)O1` [Epi-Dx, epidoxorubicin], the “Cell Vitality Percentage After Exposure” value in assay [1] (setting [4]) is 14%; in assay [1] (setting [5]), 7.8%; in assay [1] (setting [6]), 4.8%; in assay [2] (Table 2 explant, 0.1x) it was 59%; in assay [2] (Table 2 explant, 1x), 21%; in assay [2] (Table 2 explant, 10x) it was 7%. Further, the “Cell Vitality Percentage After Exposure” value in assay [2] (Table 3 explant, 0.1x) was 57%; in assay [2] (Table 3 explant, 1x) it was 32%; in assay [2] (Table 3 explant, 10x), 16%; in assay [2] (Table 4 explant, 0.1x), 16%; in assay [2] (Table 4 explant, 1x), 8%; in assay [2] (Table 4 explant, 10x) it was 8%. The “Cell Vitality Percentage After Exposure” value in assay [2] (Table 5 explant, 0.1x) is 60%; in assay [2] (Table 5 explant, 1x) it was 21%; in assay [2] (Table 5 explant, 10x), 18%. In assay [3], the “most active medicaments (cases out of 5)” value was 2/5.

On to `CN(Cc1cnc2nc(N)nc(N)c2n1)c1ccc(C(=O)N[C@@H](CCC(=O)O)C(=O)O)cc1` [MTX, methotrexate], for which the “Cell Vitality Percentage After Exposure” value worked out at 13.5% in assay [1] (setting [4]); 5% in assay [1] (setting [5]); 3.9% in assay [1] (setting [6]); 18% in assay [2] (Table 4 explant, 0.1x); 4% in assay [2] (Table 4 explant, 1x); 3.1% in assay [2] (Table 4 explant, 10x). Also, the “most active medicaments (cases out of 5)” value in assay [3] is 2/5.

Turning to `CC[C@]1(O)C[C@H]2CN(CCc3c([nH]c4ccccc34)[C@@](C(=O)OC)(c3cc4c(cc3OC)N(C=O)[C@H]3[C@@](O)(C(=O)OC)[C@H](OC(C)=O)[C@]5(CC)C=CCN6CC[C@]43[C@@H]65)C2)C1` [VCR, vincristine], the “Cell Vitality Percentage After Exposure” value in assay [1] (setting [4]) came to 7.8%; in assay [1] (setting [5]) it was 4.6%; in assay [1] (setting [6]) it was 3.8%; in assay [2] (Table 2 explant, 0.1x), 70%; in assay [2] (Table 2 explant, 1x), 45%; in assay [2] (Table 2 explant, 10x), 11%. Besides, the “Cell Vitality Percentage After Exposure” value is reported as 32% in assay [2] (Table 3 explant, 0.1x); 19% in assay [2] (Table 3 explant, 1x); 4.8% in assay [2] (Table 3 explant, 10x); 1.9% in assay [2] (Table 4 explant, 0.1x); 1.3% in assay [2] (Table 4 explant, 1x); 1.3% in assay [2] (Table 4 explant, 10x). Also, the “Cell Vitality Percentage After Exposure” value is recorded as 23% in assay [2] (Table 5 explant, 0.1x); 4.2% in assay [2] (Table 5 explant, 1x); 2% in assay [2] (Table 5 explant, 10x). The “most active medicaments (cases out of 5)” value in assay [3] was 4/5.

For Bleomycin [BLM], the “Cell Vitality Percentage After Exposure” value worked out at 55% in assay [2] (Table 2 explant, 0.1x); 36% in assay [2] (Table 2 explant, 1x); 17% in assay [2] (Table 2 explant, 10x); 81% in assay [2] (Table 3 explant, 0.1x); 68% in assay [2] (Table 3 explant, 1x); 34% in assay [2] (Table 3 explant, 10x). The “Cell Vitality Percentage After Exposure” value in assay [2] (Table 4 explant, 0.1x) is on record as 82%; in assay [2] (Table 4 explant, 1x), 79%; in assay [2] (Table 4 explant, 10x), 62%; in assay [2] (Table 5 explant, 0.1x) it was 60%; in assay [2] (Table 5 explant, 1x), 35%; in assay [2] (Table 5 explant, 10x), 31%.
